For experiment [1], the system named is Mus musculus. The experiment can be described thus: Percent recovery of tyrosine hydroxylase immunostaining after oral administration at dose 10 mg/kg concurrently with MPTP. It is filed as functional, organism-based. On the set-up: dose 10 mg/kg.
For experiment [2], the system named is Mus musculus. The experiment is described as follows: Percent recovery of tyrosine hydroxylase immunostaining in mice following 10 mg/kg p.o. administration after lesioning with MPTP. It is filed as functional, organism-based. On the set-up: dose 10 mg/kg. Conditions: at 10 mg/kg.
Another experiment is filed under the species Gallus gallus. The experiment can be described thus: In vitro promotion of fiber extension (neurite outgrowth) from cultured chick sensory neuron. The class given is functional. Conditions: read-out: ED50 (the source's name).
In experiment [3] the test system is Mus musculus. The experiment can be described thus: Percent recovery of tyrosine hydroxylase immunostaining after peroral administration at dose 10 mg/kg after lesioning with MPTP (post-MPTP). The class given is functional, organism-based. Further details: dose 10 mg/kg.
Experiment [4] relates to Mus musculus. The experiment can be described thus: Percent recovery of tyrosine hydroxylase immunostaining after oral administration at dose 10 mg/kg after lesioning with MPTP (post-MPTP). The class given is functional, organism-based. On the set-up: dose 10 mg/kg.
Experiment [5] has as its system Mus musculus. The experiment can be described thus: Percent recovery of vtyrosine hydroxylase immunostaining after oral administration at dose 10 mg/kg after lesioning with MPTP (post-MPTP). Further details: dose 10 mg/kg. It is filed as functional, organism-based.
Experiment [6] addresses Peptidyl-prolyl cis-trans isomerase FKBP1A (Homo sapiens, UniProt P62942). The experiment is described as follows: Inhibitory activity against FK506 binding protein 12.

We go through 32 compounds from ChEMBL document CHEMBL1135538, “Synthesis of N-glyoxyl prolyl and pipecolyl amides and thioesters and evaluation of their in vitro and in vivo nerve regenerative effects” (J Med Chem, 2002).

Chain of Peptidyl-prolyl cis-trans isomerase FKBP1A (P62942 whole entry): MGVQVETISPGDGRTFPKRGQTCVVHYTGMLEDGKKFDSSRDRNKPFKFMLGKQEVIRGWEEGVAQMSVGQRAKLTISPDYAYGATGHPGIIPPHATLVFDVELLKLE

Regarding `O=C(C(=O)N1CCC[C@H]1C(=O)SCCCc1ccccc1)C1CCCCC1`, in the experiment with Mus musculus [1], the Recovery stood at 52%.

`CCC(C)(C)C(=O)C(=O)N1CCCC[C@H]1C(=O)NCCCCc1cccnc1` had a Recovery in the experiment with Mus musculus [2] of 29.4%.

As for `CCC(C)(C)C(=O)C(=O)N1CCC[C@H]1C(=O)SCCCc1cccnc1`, the Recovery in the experiment on Mus musculus [1] turned out to be 31%.

As for `CCC(C)(C)C(=O)C(=O)N1CCC[C@H]1C(=O)OCCCc1cccnc1` [GPI-1046], the EC50 in the experiment filed under Gallus gallus turned out to be 0.06 nM. Also, the Recovery with Mus musculus [1] is 43%; with Mus musculus [3], 35%.

Regarding `CCC(C)(C)C(=O)C(=O)N1CCC[C@H]1C(=O)NCCCc1ccc(O)cc1`, the Recovery in the experiment with Mus musculus [2] worked out at 1.8%.

On to `CCC(C)(C)C(=O)C(=O)N1CCCC[C@H]1C(=O)NCCCCc1ccc(O)cc1`, for which the Recovery in the experiment with Mus musculus [2] turned out to be 60.4%.

`CCC(C)(C)C(=O)C(=O)N1CCCC[C@H]1C(=O)NCCCc1ccccc1` gave a Recovery in the experiment with Mus musculus [2] of 65.3%.

With `CCC(C)(C)C(=O)C(=O)N1CCC[C@H]1C(=O)SCCc1ccccc1`, the Recovery worked out at 31.4% in the experiment with Mus musculus [2] and 66% in the experiment with Mus musculus [1]. Further, the EC50 in the experiment listed under Gallus gallus amounted to 0.77 nM.

With `CCC(C)(C)C(=O)C(=O)N1CCC[C@H]1C(=O)SCCCc1ccc(C(F)(F)F)cc1`, the Recovery in the experiment with Mus musculus [4] was 34%; in the experiment with Mus musculus [1], 71%.

Consider `CC(C)(C)C(=O)C(=O)N1CCC[C@H]1C(=O)NCCCc1ccccc1`, for which, in the experiment on Mus musculus [2], the Recovery amounted to 28.1%.

Regarding `O=C(C(=O)N1CCCC[C@H]1C(=O)NCCCCc1ccccc1)c1ccccc1`, the Recovery in the experiment with Mus musculus [2] was 18.7%.

Regarding `CCC(C)(C)C(=O)C(=O)N1CCCC[C@H]1C(=O)NCCCCc1ccccc1`, the Recovery with Mus musculus [2] is 54.1%.

With `CCC(C)(C)C(=O)C(=O)N1CCC[C@H]1C(=O)NC`, the Recovery in the experiment on Mus musculus [2] stood at 16.1%.

For the compound `CCC(C)(C)C(=O)C(=O)N1CCCC[C@H]1C(=O)SCCCc1ccccc1`, in the experiment on Mus musculus [5], the Recovery was determined as 30%.

In the experiment with Mus musculus [2], `CC(C)(C)C(=O)C(=O)N1CCCC[C@H]1C(=O)NCCCCc1ccccc1` came in with a Recovery of 44.9%.

Take `CCC(C)(C)C(=O)C(=O)N1CCC[C@H]1C(=O)SCCCc1ccccc1`: in the experiment filed under Gallus gallus, the EC50 is below 0.01 nM. In addition, in the experiment on Mus musculus [1], the Recovery came out at 72%.

As usually defined, the Ki is the equilibrium dissociation constant of an inhibitor or competing ligand from its target. As for `CCC(C)(C)C(=O)C(=O)N1CCC[C@H]1C(=O)NCCCc1ccccc1`, the Ki in experiment [6] is 1100 nM. In the experiment on Mus musculus [4], this compound had a Recovery of 39%.

Turning to `CCC(C)(C)C(=O)C(=O)N1CCC[C@H]1C(=O)SCCCCc1ccccc1`, the Recovery in the experiment on Mus musculus [1] is 48%.

With `CCC(C)(C)C(=O)C(=O)N1CCC[C@H]1C(=O)NC(CCc1ccccc1)CCc1ccccc1`, in the experiment with Mus musculus [2], the Recovery was found to be 6.9%.

With `CCC(C)(C)C(=O)C(=O)N1CCC[C@H]1C(=O)NCCCc1cccnc1`, the Recovery with Mus musculus [2] is 4.7%. Besides, in experiment [6], the Ki stood at 820 nM.

For `CCC(C)(C)C(=O)C(=O)N1CCC[C@H]1C(=O)N(C)CCCc1ccccc1`, the Recovery with Mus musculus [2] is 20.5%.

The compound `CCC(C)(C)C(=O)C(=O)N1CCCC[C@H]1C(=O)NCCC(c1ccccc1)c1ccccc1` had a Recovery in the experiment with Mus musculus [2] of 41.9%. Further, the affinity in experiment [6], expressed as Ki, was 420 nM.

As to `CCC(C)(C)C(=O)C(=O)N1CCC[C@H]1C(=O)SCCC(c1ccccc1)c1ccccc1`, the Recovery stood at 37% with Mus musculus [4] and 39% in the experiment with Mus musculus [1].

Consider `CCC(C)(C)C(=O)C(=O)N1CCC[C@H]1C(=O)NCCCCc1ccccc1`, for which the Recovery with Mus musculus [2] came out at 50.1%.

For `CCC(C)(C)C(=O)C(=O)N1CCC[C@H]1C(=O)SCCCc1ccc(OC)cc1`, in the experiment filed under Gallus gallus, the EC50 amounted to 0.01 nM.

`O=C(C(=O)N1CCC[C@H]1C(=O)SCCc1ccccc1)C1CCCC1` had a Recovery in the experiment on Mus musculus [1] of 41%.

`CCC(C)(C)C(=O)C(=O)N1CCCC[C@H]1C(=O)SCCC(c1ccccc1)c1ccccc1`: the Recovery with Mus musculus [2] is 72%; in the experiment on Mus musculus [1], 81%.

Take `CCC(C)(C)C(=O)C(=O)N1CCC[C@H]1C(=O)SCCCc1ccc2ccccc2c1`: the Recovery is 10% in the experiment on Mus musculus [4] and 36% with Mus musculus [1].

`CCC(C)(C)C(=O)C(=O)N1CCCC[C@H]1C(=O)NCCCCCc1ccccc1`: the Recovery with Mus musculus [2] was found to be 37.4%.

Turning to `CCC(C)(C)C(=O)C(=O)N1CCCC[C@H]1C(=O)SCCc1ccccc1`, the Recovery with Mus musculus [1] amounted to 73%.

Turning to `CCC(C)(C)C(=O)C(=O)N1CCCC[C@H]1C(=O)NC`, the Recovery with Mus musculus [2] worked out at 31.6%.

Turning to `CCC(C)(C)C(=O)C(=O)N1CCC[C@H]1C(=O)NCCc1ccccc1`, the Recovery with Mus musculus [2] was 44.1%.
